This is an account of results in US9492471B2, “Methods of treating a disease or disorder associated with Bruton'S Tyrosine Kinase” (Celgene Avilomics Research, Inc., priority 2013, dated 2016).

SMILES strings stand for the structures. Like-named read-outs stand apart in the source and are kept apart here.

Common to all, as to experiment: HotSpot kinase profiling
Type in all cases: biochemical

The target in assay [1] is T1, ARK5/NUAK1 (Homo sapiens, UniProt O60285).
T1 construct: purchased Reaction Biology Corp
T1 sequence (O60285 1-661): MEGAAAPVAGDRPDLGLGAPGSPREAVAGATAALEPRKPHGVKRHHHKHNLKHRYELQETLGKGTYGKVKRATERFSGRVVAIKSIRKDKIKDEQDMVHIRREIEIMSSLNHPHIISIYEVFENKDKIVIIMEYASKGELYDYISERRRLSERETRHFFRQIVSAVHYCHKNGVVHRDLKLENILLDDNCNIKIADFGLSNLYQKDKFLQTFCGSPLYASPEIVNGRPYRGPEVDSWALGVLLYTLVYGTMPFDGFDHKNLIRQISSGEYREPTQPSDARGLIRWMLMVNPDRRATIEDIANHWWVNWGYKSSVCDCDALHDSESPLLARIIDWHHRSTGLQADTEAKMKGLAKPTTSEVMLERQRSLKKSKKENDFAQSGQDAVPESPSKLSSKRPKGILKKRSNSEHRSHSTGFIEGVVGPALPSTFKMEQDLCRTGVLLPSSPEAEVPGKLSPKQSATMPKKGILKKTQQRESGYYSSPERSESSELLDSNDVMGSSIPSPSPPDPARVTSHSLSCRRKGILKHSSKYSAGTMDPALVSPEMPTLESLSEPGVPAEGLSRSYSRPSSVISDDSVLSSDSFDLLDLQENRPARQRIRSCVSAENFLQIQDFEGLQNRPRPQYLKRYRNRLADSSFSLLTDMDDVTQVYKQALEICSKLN
In a few lines:
(§1)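 Percent inhibition, averaged when run more than once and referenced to a DMSO negative control, came from a radioactive filter-binding readout on P81 paper. Reactions of kinase with freshly made substrate and cofactors ran for 2 h at room temperature.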

The target of assay [2] is T2, EGFR (Homo sapiens, UniProt P00533).
T2 construct: purchased Reaction Biology Corp
In a few lines: as §1

In assay [3] the target is T3, FMS (Homo sapiens, UniProt P07333).
T3 construct: purchased Reaction Biology Corp
A digest of the protocol: as §1

Assay [4] deals with T4, HPK1/MAP4K1 (Homo sapiens, UniProt Q92918).
T4 construct: purchased Reaction Biology Corp
In a few lines:
as §1

Assay [5] has as its target T5, LRRK2 (Homo sapiens, UniProt Q5S007).
T5 construct: purchased Reaction Biology Corp
In a few lines: as §1

For assay [6], the target named is T6, MARK4 (Homo sapiens, UniProt Q96L34).
T6 construct: purchased Reaction Biology Corp
T6 sequence (Q96L34 1-752): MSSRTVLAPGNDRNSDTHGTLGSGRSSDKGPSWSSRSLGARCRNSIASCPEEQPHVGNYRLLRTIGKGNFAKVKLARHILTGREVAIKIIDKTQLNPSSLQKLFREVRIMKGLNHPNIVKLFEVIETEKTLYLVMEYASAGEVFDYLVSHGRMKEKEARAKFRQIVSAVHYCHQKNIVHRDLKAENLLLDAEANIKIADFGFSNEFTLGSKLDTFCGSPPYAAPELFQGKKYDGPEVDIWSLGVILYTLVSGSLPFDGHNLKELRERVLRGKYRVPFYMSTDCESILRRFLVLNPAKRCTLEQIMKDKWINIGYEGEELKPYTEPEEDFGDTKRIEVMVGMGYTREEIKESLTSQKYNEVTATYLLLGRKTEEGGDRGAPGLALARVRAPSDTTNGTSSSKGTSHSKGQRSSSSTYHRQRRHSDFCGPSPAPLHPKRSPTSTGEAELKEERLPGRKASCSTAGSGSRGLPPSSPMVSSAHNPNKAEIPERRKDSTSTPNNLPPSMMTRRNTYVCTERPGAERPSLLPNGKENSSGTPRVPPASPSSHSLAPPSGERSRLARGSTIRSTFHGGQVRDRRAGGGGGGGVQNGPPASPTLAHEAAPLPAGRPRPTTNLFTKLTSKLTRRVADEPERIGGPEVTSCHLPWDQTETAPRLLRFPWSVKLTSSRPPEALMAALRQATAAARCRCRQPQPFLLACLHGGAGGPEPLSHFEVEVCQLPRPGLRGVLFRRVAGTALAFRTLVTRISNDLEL
In a few lines:
as §1

Assay [7] has as its target T7, MKK4 (Homo sapiens, UniProt P45985).
T7 construct: purchased Reaction Biology Corp
T7 sequence (P45985 1-399): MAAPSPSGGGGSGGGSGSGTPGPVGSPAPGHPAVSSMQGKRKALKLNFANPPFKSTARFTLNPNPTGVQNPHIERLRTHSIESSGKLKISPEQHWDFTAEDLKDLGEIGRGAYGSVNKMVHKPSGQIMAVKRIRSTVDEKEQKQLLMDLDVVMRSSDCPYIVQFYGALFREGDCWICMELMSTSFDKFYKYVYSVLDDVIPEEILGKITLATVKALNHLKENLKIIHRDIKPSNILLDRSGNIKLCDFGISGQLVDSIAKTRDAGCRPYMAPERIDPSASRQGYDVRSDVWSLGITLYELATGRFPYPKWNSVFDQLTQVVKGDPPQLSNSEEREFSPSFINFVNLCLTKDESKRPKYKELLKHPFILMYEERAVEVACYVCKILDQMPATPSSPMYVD
A digest of the protocol:
as §1

Assay [8] deals with T8, PKAcb (Homo sapiens, UniProt P22694).
T8 construct: purchased Reaction Biology Corp
A digest of the protocol:
as §1

[9] abbreviates: read-out: % Enzyme Activity (relative to DMSO controls) Run 1.
Where [10] appears, read: read-out: % Enzyme Activity (relative to DMSO controls) Run 2.

T3 sequence (P07333 20-972): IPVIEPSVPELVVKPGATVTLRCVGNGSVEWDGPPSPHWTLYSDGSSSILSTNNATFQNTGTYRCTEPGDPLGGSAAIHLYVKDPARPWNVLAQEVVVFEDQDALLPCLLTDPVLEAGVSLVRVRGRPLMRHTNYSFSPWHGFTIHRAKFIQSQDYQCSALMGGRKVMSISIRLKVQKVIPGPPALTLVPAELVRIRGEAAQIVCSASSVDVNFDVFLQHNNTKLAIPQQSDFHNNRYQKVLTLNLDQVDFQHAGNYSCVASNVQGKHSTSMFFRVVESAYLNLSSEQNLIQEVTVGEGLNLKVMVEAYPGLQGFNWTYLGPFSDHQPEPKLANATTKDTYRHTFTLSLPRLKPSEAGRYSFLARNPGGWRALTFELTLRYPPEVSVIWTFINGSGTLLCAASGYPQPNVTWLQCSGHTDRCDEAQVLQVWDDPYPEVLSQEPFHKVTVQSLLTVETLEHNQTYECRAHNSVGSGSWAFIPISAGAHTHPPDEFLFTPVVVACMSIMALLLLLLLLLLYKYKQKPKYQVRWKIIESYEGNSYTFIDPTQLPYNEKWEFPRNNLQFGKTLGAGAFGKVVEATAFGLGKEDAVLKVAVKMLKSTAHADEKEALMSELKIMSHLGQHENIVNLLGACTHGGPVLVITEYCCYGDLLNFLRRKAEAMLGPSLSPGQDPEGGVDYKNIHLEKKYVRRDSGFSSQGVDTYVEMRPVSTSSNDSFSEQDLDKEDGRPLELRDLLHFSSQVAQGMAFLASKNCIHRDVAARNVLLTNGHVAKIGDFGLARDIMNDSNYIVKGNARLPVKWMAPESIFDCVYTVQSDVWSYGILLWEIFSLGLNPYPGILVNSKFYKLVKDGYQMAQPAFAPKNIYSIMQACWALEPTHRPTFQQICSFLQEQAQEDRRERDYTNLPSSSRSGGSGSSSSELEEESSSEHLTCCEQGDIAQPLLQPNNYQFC
T5 sequence (Q5S007 whole entry): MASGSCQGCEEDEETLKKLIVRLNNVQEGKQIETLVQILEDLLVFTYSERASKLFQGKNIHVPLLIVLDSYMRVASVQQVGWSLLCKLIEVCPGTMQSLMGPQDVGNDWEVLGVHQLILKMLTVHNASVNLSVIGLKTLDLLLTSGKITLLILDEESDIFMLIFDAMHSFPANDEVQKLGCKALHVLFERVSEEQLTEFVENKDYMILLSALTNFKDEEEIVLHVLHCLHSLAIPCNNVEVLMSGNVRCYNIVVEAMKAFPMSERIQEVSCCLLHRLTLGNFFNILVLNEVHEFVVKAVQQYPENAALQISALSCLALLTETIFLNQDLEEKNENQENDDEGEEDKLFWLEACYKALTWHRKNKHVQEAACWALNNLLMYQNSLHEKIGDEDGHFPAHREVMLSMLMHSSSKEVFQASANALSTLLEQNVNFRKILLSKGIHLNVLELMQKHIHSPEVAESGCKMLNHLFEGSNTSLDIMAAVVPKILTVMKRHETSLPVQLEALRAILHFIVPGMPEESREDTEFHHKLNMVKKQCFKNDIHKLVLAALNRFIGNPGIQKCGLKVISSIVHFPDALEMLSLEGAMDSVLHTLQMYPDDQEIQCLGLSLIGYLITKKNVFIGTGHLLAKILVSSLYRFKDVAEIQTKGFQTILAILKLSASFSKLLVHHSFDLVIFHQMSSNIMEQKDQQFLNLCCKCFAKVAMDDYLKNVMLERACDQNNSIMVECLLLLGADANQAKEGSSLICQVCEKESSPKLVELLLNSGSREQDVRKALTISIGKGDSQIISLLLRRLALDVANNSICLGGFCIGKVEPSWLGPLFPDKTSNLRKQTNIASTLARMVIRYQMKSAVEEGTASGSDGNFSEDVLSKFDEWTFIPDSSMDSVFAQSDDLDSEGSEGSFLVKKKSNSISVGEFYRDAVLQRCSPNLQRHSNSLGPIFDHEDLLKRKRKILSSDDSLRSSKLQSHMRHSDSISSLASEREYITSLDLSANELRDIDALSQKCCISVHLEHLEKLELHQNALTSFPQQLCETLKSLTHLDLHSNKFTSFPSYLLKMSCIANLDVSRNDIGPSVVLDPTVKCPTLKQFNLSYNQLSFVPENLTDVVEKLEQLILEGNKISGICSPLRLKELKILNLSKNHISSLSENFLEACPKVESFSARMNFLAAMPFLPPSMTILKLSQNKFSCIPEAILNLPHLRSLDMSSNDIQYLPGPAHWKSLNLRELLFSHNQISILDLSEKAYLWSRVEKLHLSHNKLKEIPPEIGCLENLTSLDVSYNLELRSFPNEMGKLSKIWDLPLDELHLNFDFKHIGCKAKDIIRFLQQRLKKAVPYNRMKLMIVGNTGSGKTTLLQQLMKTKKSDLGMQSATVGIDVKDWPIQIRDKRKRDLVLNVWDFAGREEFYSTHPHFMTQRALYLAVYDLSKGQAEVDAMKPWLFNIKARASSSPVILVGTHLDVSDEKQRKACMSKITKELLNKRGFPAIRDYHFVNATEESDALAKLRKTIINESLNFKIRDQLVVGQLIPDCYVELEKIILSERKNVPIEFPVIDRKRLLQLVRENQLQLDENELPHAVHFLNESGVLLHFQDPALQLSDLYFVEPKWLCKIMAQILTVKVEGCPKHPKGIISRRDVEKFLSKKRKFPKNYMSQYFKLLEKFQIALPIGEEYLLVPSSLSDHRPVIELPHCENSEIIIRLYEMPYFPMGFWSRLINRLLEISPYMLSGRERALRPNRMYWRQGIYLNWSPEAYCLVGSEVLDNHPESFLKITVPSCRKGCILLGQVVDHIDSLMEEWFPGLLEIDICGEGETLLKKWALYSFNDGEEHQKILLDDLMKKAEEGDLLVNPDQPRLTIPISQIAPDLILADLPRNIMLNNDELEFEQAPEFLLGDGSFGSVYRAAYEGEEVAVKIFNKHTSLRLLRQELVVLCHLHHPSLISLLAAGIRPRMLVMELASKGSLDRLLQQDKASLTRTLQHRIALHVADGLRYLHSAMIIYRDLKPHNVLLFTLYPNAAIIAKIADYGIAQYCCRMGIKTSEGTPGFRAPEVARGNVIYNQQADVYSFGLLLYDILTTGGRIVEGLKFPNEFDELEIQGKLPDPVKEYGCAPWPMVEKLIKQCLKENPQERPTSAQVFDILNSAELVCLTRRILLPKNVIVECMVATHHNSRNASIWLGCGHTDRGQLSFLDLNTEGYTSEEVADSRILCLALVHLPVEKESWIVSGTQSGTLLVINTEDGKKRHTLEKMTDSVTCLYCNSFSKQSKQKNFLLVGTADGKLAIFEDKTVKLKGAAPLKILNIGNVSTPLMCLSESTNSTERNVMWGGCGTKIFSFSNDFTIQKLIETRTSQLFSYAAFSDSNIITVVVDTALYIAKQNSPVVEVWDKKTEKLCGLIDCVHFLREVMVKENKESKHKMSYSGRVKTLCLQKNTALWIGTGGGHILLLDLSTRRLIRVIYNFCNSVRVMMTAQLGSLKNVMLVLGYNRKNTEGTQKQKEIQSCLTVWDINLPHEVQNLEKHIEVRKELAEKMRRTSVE
T2 sequence (P00533 25-1210): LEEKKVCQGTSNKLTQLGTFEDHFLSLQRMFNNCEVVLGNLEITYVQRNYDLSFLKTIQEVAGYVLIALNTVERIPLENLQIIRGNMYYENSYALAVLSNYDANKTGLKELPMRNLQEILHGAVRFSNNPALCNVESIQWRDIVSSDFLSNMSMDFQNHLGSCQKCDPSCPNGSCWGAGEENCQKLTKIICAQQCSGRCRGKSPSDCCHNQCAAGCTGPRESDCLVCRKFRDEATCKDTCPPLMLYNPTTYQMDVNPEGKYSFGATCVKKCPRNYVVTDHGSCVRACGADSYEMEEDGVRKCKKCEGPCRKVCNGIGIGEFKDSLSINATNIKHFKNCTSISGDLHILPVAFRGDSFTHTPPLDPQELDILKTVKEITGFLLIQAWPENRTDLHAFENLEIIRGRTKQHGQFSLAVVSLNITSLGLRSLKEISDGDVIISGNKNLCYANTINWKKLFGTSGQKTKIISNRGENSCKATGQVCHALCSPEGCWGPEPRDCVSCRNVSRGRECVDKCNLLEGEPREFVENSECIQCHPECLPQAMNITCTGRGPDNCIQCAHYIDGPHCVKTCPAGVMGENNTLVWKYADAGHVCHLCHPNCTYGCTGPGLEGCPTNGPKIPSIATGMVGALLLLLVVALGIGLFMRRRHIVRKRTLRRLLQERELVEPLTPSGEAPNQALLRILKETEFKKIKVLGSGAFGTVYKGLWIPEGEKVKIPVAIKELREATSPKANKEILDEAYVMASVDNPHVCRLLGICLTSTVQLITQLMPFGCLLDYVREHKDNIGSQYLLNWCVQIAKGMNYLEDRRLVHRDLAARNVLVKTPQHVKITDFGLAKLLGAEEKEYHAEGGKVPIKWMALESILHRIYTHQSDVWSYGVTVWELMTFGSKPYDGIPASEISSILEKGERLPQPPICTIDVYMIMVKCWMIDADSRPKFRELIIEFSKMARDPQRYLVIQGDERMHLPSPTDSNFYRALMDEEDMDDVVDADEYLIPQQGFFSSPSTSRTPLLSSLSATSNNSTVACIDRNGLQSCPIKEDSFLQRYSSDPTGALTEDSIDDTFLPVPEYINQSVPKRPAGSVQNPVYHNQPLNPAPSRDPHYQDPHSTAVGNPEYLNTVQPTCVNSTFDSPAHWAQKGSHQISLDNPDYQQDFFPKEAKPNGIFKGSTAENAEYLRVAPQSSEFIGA

In the case of `C=CC(=O)Nc1cccc(Nc2nc(Nc3ccc(OCCOC)c(F)c3)ncc2F)c1` [Compound 2], the inhibition (in general, the relative decrease from the control value, in per cent) at 3 µM came to 86.7% in assay [1]; 80.3% in assay [2]; 34.1% in assay [3]; 12.9% in assay [4]; 65.9% in assay [5]; 18.5% in assay [6]. Besides, the inhibition at 3 µM in assay [7] is -16.6%; in assay [8], 49.6%. The remaining activity at 3 µM came to 13.3% in assay [1] (setting [9]); 13.3% in assay [1] (setting [10]); 19.2% in assay [2] (setting [9]); 20.2% in assay [2] (setting [10]); 64.5% in assay [3] (setting [9]); 67.3% in assay [3] (setting [10]). The remaining activity at 3 µM in assay [4] (setting [9]) is 85.8%; in assay [4] (setting [10]), 88.4%; in assay [5] (setting [9]), 33%; in assay [5] (setting [10]) it was 35.1%; in assay [6] (setting [9]) it was 82.2%; in assay [6] (setting [10]) it was 80.9%. For the same compound, the remaining activity at 3 µM in assay [7] (setting [9]) was 117%; in assay [7] (setting [10]) it was 116%; in assay [8] (setting [9]), 49.7%; in assay [8] (setting [10]), 51.1%.
